The text below walks through data of US20250353816A1, “QUINOLINES AS MODULATORS OF POLRMT” (Pretzel Therapeutics, Inc., priority 2024, published 2025).

This test concerns the target POLRMT (Homo sapiens (Human), UniProt O00411). The test is described as follows: homogeneous TR-FRET assay of mitochondrial transcription (inhibition of POLRMT). Type of test: biochemical. The following applies: 7.5 nM POLRMT, 15 nM TFB2M, 30 nM TFAM, 60 minutes at 37° C. On the procedure:
The inhibitory activity of the compounds of the present invention against POLRMT were determined by assays based on Bergbrede, T., et al., “An adaptable high-throughput technology enabling the identification of specific transcription modulators,” SLAC Discov., 22, 378-386 (2017).
The ability of some compounds of the present invention to inhibit POLRMT were determined in a homogeneous TR-FRET Assay using high-throughput screening in a 384-well plate format. This method is used to monitor the activity of mitochondrial transcription through measurement of its product, a 407 bp long RNA transcript. Detection of the product is facilitated by hybridization of two DNA-oligonucleotide probes to specific and adjacent sequences within the RNA product sequence. Upon annealing of the probes, two fluorophores are coupled directly to an acceptor nucleotide probe (ATTO647, 5′), or introduced via a coupled streptavidin with a biotinylated donor nucleotide probe (Europium cryptate) that is brought into sufficient proximity to serve as a fluorescence-donor-acceptor pair. Thus, a FRET signal at 665 nm is generated upon excitation at 340 nm.
Proteins used as transcription factors (POLRMT: NP_005026.3, TFAM: NP_003192.1, TFB2M: NP_071761.1) are diluted from their stocks to working concentrations of 1 μM, 20 μM and 4 μM respectively, in a dilution buffer containing 20 mM Tris-HCl (pH 8.0), 200 mM NaCl, 10% (v/v) glycerol, 1 mM Dithiothreitol (DTT), 0.5 mM EDTA.
DNA template is a pUC18 plasmid with the mitochondrial light strand promotor sequence (1-477) cloned between HindIII and BamHI sites. The DNA template is restriction linearized proximal to the promotor 3′-end (pUC-LSP).
The reaction mixture (10 uL) containing 7.5 nM POLRMT, 15 nM of TFB2M, 30 nM of TFAM, 0.5 nM of DNA template and 500 μM nucleotide triphosphate mix (NTPs) in a reaction buffer (containing 10 mM Tris-HCl (pH 7.5), 10 mM MgCl2, 40 mM NaCl, 10 mM DTT, 0.005% (w/v) Tween-20, 160 units/ml Rnase inhibitor and 0.1 mg/mL BSA) are dispensed to compounds in microplates, using a Thermo Multidrop® dispenser, and incubated at 37° C. in a VWR INCU-Line incubator for 60 minutes after mixing. No nucleotide triphosphate mix is added to negative control samples. Microplates with compounds to be tested in the assay are prepared from 10 mM compound stocks in 100% DMSO, equal amounts of DMSO without any compound are added to positive control and negative control samples.
During the incubation, a mix of the detection reagents is prepared in a buffer such that the enzymatic reaction is terminated due to chelating of Mg-ions and increased ionic strength, containing 50 mM Tris-HCl (pH 7.5), 700 mM NaCl, 20 mM EDTA, and 0.01% (w/v) Tween-20. Europium-streptavidin is pre-incubated with a 200-fold molar excess of a random sequence oligonucleotide to block unspecific binding of oligo, for two hours at ambient temperature in the dark. Afterwards, the blocked Europium-streptavidin is kept on ice until use.
At the end of the enzymatic reaction time, 5 μL detection oligo mix in the detection buffer is added, and assay plates are mixed and kept at ambient temperature for one hour, protected from light. The concentration of the Acceptor nucleotide oligo (e.g., ATTO647N-5′-[…]-3′ (SEQ ID NO: 1)) and Donor nucleotide oligo (e.g., bio-5′-AACACATCTCT(-bio)GCCAAACCCCA-bio-3′ (SEQ ID NO: 2)) in each assay well is 1 nM, and 3 nM, respectively.
After incubation with oligo mix, 5 μL of pre-blocked Europium-streptavidin reagent is dispensed to each assay well, assay plates are again mixed and kept at ambient temperature for one hour, protected from light.
The generated signal is measured with BMG Pherastar microtiter plate reader with a TRF light unit, using excitation at 340 nm, an integration time of 200 μs, and a delay time of […], before detection at 620 nm and 665 nm. The ratio of donor- and acceptor-fluorescence is used as a measure of the generated transcript product (i.e. enzymatic activity).
(In general: In TR-FRET formats the signal depends on donor and acceptor labels being close together.)

Bounds are passed on as bounds.

Sequence of POLRMT (O00411 42-1230): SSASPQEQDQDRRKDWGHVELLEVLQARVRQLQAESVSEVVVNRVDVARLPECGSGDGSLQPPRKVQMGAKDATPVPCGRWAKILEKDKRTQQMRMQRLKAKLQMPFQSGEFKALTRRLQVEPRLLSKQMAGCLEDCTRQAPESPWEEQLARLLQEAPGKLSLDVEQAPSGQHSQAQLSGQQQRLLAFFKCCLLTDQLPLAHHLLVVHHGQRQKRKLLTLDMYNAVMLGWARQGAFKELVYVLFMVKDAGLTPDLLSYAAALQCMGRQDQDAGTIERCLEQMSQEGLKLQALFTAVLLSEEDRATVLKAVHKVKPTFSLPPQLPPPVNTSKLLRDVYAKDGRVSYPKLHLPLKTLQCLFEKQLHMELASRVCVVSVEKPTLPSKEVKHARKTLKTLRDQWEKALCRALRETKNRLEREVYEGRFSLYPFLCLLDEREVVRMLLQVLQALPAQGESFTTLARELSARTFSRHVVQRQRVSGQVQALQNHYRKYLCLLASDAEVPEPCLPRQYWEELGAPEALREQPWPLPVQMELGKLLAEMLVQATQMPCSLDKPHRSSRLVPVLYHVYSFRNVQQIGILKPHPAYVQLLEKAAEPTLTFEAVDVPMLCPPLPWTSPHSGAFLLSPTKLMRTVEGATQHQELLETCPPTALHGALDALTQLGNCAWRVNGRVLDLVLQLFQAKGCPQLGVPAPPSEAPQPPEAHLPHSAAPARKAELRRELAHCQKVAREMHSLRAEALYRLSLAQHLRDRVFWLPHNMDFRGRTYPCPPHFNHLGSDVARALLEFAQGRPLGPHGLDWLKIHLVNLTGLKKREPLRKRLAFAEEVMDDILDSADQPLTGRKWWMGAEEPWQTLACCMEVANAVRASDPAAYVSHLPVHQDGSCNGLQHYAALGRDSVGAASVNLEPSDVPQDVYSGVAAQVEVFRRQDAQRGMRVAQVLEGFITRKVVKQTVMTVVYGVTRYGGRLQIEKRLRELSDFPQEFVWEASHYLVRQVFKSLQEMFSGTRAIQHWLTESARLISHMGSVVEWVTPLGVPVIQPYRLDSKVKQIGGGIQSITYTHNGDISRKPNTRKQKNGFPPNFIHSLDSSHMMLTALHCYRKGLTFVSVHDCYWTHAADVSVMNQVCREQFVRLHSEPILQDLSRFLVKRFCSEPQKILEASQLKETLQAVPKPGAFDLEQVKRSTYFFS

`COC(C)c1ccc2c(-c3ccccc3C)ccnc2c1` (stereo not drawn) [Example 27, 7-(1-methoxyethyl)-4-(o-tolyl)quinoline]: the IC50 – broadly, the concentration at which inhibition is half-maximal – is 8 µM.

For `Cc1ccccc1-c1ccnc2cc(CN3CCN(C)CC3)ccc12` [Example 28, 7-((4-methylpiperazin-1-yl)methyl)-4-(o-tolyl)quinoline], the half-maximal inhibitory concentration (IC50) was greater than 100 µM.

In turn, `Cc1ccccc1-c1ccnc2cc(CC(=O)O)ccc12` [Example 29, 2-(4-(o-tolyl)quinolin-7-yl)acetic acid] came in with a half-maximal inhibitory concentration (IC50) of 97 µM.

Compound `Cc1ccccc1-c1ccnc2cc(CC(=O)NC3CC3)ccc12` [Example 30, N-cyclopropyl-2-(4-(o-tolyl)quinolin-7-yl)acetamide] returned an IC50 of 91 µM.

In turn, `COCCc1ccc2c(-c3ccccc3C)ccnc2c1` [Example 31, 7-(2-methoxyethyl)-4-(o-tolyl)quinoline] displayed an IC50 of 6 µM.

Regarding `Cc1ccccc1-c1ccnc2cc(CN(C)S(C)(=O)=O)ccc12` [Example 32, N-methyl-N-((4-(o-tolyl)quinolin-7-yl)methyl)methanesulfonamide], 24 µM corresponded to half-maximal inhibition (IC50).

Regarding `Cc1ccccc1-c1ccnc2cc(C#N)ccc12` [Example 33, 4-(o-tolyl)quinoline-7-carbonitrile], the half-maximal inhibitory concentration (IC50) came out at 74 µM.

`Cc1ccccc1-c1ccnc2cc(CC(=O)N3CCOCC3)ccc12` [Example 36, 1-morpholino-2-(4-(o-tolyl)quinolin-7-yl)ethan-1-one] registered an IC50 greater than 100 µM.

Compound `Cc1ccccc1-c1ccnc2cc(CC(=O)N3CCN(C)CC3)ccc12` [Example 39, 1-(4-methylpiperazin-1-yl)-2-(4-(o-tolyl)quinolin-7-yl)ethan-1-one] registered an IC50 greater than 100 µM.

`CC(=O)N1CCN(C(=O)Cc2ccc3c(-c4ccccc4C)ccnc3c2)CC1` [Example 40, 1-(4-acetylpiperazin-1-yl)-2-(4-(o-tolyl)quinolin-7-yl)ethan-1-one] displayed an IC50 greater than 100 µM.

`Cc1ccccc1-c1ccnc2cc(CC(=O)NCC3CC3)ccc12` [Example 41, N-(cyclopropylmethyl)-2-(4-(o-tolyl)quinolin-7-yl)acetamide] returned an IC50 of 91 µM.

`Cc1ccccc1-c1ccnc2cc(CC(N)=O)ccc12` [Example 42, 2-(4-(o-tolyl)quinolin-7-yl)acetamide] returned a 50% inhibitory concentration (IC50) greater than 100 µM.

The compound `Cc1ccccc1-c1ccnc2cc(CC(=O)N(C)C)ccc12` [Example 43, N,N-dimethyl-2-(4-(o-tolyl)quinolin-7-yl)acetamide] yielded an IC50 greater than 100 µM.

`CNC(=O)Cc1ccc2c(-c3ccccc3C)ccnc2c1` [Example 44, N-methyl-2-(4-(o-tolyl)quinolin-7-yl)acetamide]: the IC50 is greater than 100 µM.

`Cc1ccccc1-c1ccnc2cc(NC(C)C(=O)N3CCCCC3)ccc12` (stereo not drawn) [Example 45, 1-(piperidin-1-yl)-2-((4-(o-tolyl)quinolin-7-yl)amino)propan-1-one] registered an IC50 of 4 µM.

In turn, `Cc1ccccc1-c1ccnc2cc(NC(C)C(=O)N3CCOCC3)ccc12` (stereo not drawn) [Example 46, 1-morpholino-2-((4-(o-tolyl)quinolin-7-yl)amino)propan-1-one] displayed an IC50 of 8 µM.

On to `Cc1ccccc1-c1ccnc2cc(NC(C)C(=O)N(C)C)ccc12` (stereo not drawn) [Example 47, N,N-dimethyl-2-((4-(o-tolyl)quinolin-7-yl)amino)propanamide], for which the IC50 is 26 µM. Compared with the last compound, the IC50 is about 3.2-fold higher.

In turn, `Cc1ccccc1-c1ccnc2cc(C(C)OCC(=O)O)ccc12` (stereo not drawn) [Example 54, 2-(1-(4-(o-tolyl)quinolin-7-yl)ethoxy)acetic acid] returned a half-maximal inhibitory concentration (IC50) greater than 100 µM.

The compound `Cc1ccccc1-c1ccnc2cc(C(C)OCC(=O)N(C)C)ccc12` (stereo not drawn) [Example 55, N,N-dimethyl-2-(1-(4-(o-tolyl)quinolin-7-yl)ethoxy)acetamide] displayed an IC50 greater than 100 µM.

Take `Cc1ccccc1-c1ccnc2cc(C(C)OCC(N)=O)ccc12` (stereo not drawn) [Example 56, 2-(1-(4-(o-tolyl)quinolin-7-yl)ethoxy)acetamide]: the IC50 is greater than 100 µM.

`CNC(=O)COC(C)c1ccc2c(-c3ccccc3C)ccnc2c1` (stereo not drawn) [Example 57, N-methyl-2-(1-(4-(o-tolyl)quinolin-7-yl)ethoxy)acetamide] showed an IC50 greater than 100 µM.
